In article PMC12723578 (Archiv Der Pharmazie, 2025):
Where “and” joins values, the source holds several entries; their conditions need not be identical. Equal values may be shown once. Where a name gives a salt, the structure may show the parent alone. Read-outs that look alike come from different tables or passages of the source.

Tests used:
SARS‐CoV‐2 M^pro [1] = target: T1, SARS‐CoV‐2 M^pro (Severe acute respiratory syndrome coronavirus 2, UniProt P0DTD1); assay: Screening of M^pro inhibition at 10 and 50 µM (fluorogenic substrate Boc‐Abu‐Tle‐Leu‐Gln‐AMC); type: biochemical; details: for M^pro inhibition (in words): screened at 10 and 50 µM
[2] = In vitro stability in human plasma; type: in vitro ADME; details: plasma diluted to 80% with sodium phosphate buffer, pH 7.4, male human plasma, 37°C, read-out: plasma half‐life t 1/2
Description: For the investigation of the in vitro stability of 12 in human plasma, 100 µM of the M^pro inhibitor was incubated with male human plasma at 37°C for five different time periods.
A volume of 30 µL of a 2 mM compound stock solution in DMSO was mixed with 570 µL of a male human plasma solution (Biomol GmbH, Hamburg, Germany) that was diluted to 80% with 0.05 M sodium phosphate buffer, pH 7.4, and prewarmed at 37°C. The final compound concentration was 100 µM, and the DMSO concentration was 5% (v/v). The mixture was divided into aliquots of 100 µL, which were incubated for different time periods and subsequently quenched by the addition of 200 µL of a 0.05 mg/mL reserpine (internal standard) and 2% AcOH (v/v) solution in MeOH. The samples were vortexed for 1 min, stored on ice for 15 min, and subsequently centrifuged at 15,000 rpm and 4°C for 2 min. After filtration through a 0.45 µm polytetrafluoroethylene membrane filter, the resulting solutions were analyzed by HPLC (Jasco Deutschland GmbH, Pfungstadt, Germany). […] The residual proportion was plotted versus incubation time and non‐linear regression according to Y(t) = Y 0 × e^ (‐kt) provided the first‐order rate constant of degradation k, with Y 0 being the compound proportion at t = 0 and Y(t) the residual proportion after a specific incubation time t. Equation t 1/2 = ln2/k afforded the plasma half‐life t 1/2 (n = 2).

SARS‐CoV‐2 M^pro [3] = target: T1, SARS‐CoV‐2 M^pro; assay: Investigation of inhibition reversibility by jump dilution; type: biochemical; details: 25 min preincubation, 100‐fold jump dilution
SARS‐CoV‐2 M^pro [4] = target: T1, SARS‐CoV‐2 M^pro; assay: Determination of IC50 and K i values; type: biochemical; details: for Ki: calculated from IC50 with the Cheng‐Prusoff equation
SARS‐CoV‐2 [5] = assay: Cellular antiviral activity, virus plaque assay in A549‐ACE2 cells; type: cell-based
in vitro = details: human
A549‐ACE2 cells = details: up to 100 µM
SARS‐CoV‐2 M^pro [6] = target: T1, SARS‐CoV‐2 M^pro; assay: Determination of k inac/K i for irreversible inhibitors; type: biochemical; details: for k inac/K i: second‐order rate constant of enzyme inactivation, reactions monitored for 60 min
[7] = Stability in aqueous media
SARS‐CoV‐2 [8] = details: A549‐ACE2 cells; cited from earlier work
[9] = phase I study, single‐dose treatment, fasted conditions, without ritonavir coadministration; cited from earlier work
[10] = read-out: Inhibition @ [I] = 10 µM (%)
[11] = read-out: Inhibition @ [I] = 50 µM (%)
[12] = product formation determined after 10 min
[13] = [I] = 50 µM, product formation determined after 10 min
[14] = [I] = 10 µM, product formation determined after 10 min

With `CN(CC#N)NC(=O)[C@H](Cc1ccccc1)NC(=O)OCc1ccccc1` [Compound 10, Benzyl (S)‐{1‐[2‐(cyanomethyl)‐2‐methylhydrazineyl]‐1‐oxo‐3‐phenylpropan‐2‐yl}carbamate] the inhibition at 10 µM (SARS‐CoV‐2 M^pro [1]; [10]) was 10%, the inhibition at 50 µM (SARS‐CoV‐2 M^pro [1]; [11]) was 11% and the “M^pro inhibition (in words)” value (SARS‐CoV‐2 M^pro [1]) was “did not exhibit notable inhibitory properties”.
In the case of `COC(=O)CC(=O)N(C)NC(=O)[C@H](Cc1ccccc1)NC(=O)OCc1ccccc1` [Compound 4, Methyl 3‐{2‐[({benzyloxy}carbonyl)‐L‐phenylalanyl]‐1‐6;methylhydrazineyl}‐3‐oxopropanoate], the inhibition at 10 µM (SARS‐CoV‐2 M^pro [1]; [10]) is reported as 0%, the inhibition at 50 µM (SARS‐CoV‐2 M^pro [1]; [11]) is reported as 0% and the “M^pro inhibition (in words)” value (SARS‐CoV‐2 M^pro [1]) is reported as “inactive”.
For `CCOC(=O)N(C)NC(=O)[C@H](Cc1ccccc1)NC(=O)OCc1ccccc1` [Compound 3, Ethyl 2‐{[(N‐benzyloxy)carbonyl]‐L‐phenylalanyl}‐1‐5;methylhydrazine‐1‐carboxylate], the inhibition at 10 µM (SARS‐CoV‐2 M^pro [1]; [10]) was 2%, the inhibition at 50 µM (SARS‐CoV‐2 M^pro [1]; [11]) was 3% and the “M^pro inhibition (in words)” value (SARS‐CoV‐2 M^pro [1]) was “did not cause protease inhibition”.
`CCN(CC)CCOC(=O)c1ccc(N)cc1` [Procaine hydrochloride, reference compound] gave a half-life at 100 µM [2] of 0.13 ± 0.0157 h.
For `CC(C)(C)[C@H](NC(=O)c1cccs1)C(=O)N[C@@H](Cc1ccccc1)C(=O)NN(Cc1cccc(Cl)c1)C(=O)C(Cl)Cl` [Compound 13, N‐{[S]‐1‐[({S}‐1‐{2‐(3‐Chlorobenzyl)‐2‐(2,2‐dichloroacetyl)hydrazineyl}‐1‐oxo‐3‐phenylpropan‐2‐yl)amino]‐3,3‐dimethyl‐1‐oxobutan‐2‐yl}thiophene‐2‐carboxamide], the inhibition at 50 µM (SARS‐CoV‐2 M^pro [1]; [11]) was < 50% and the “M^pro inhibition reversibility” value (SARS‐CoV‐2 M^pro [3]) was “Reversible”.
With `CC(C)(C)[C@H](NC(=O)c1cccs1)C(=O)N[C@@H](Cc1ccccc1)C(=O)NN(Cc1cccc(Cl)c1)C(=O)C(F)Cl` (mixture of isomers) [Compound 14, N‐{[2S]‐1‐[({2S}‐1‐{2‐(2‐Chloro‐2‐fluoroacetyl)‐2‐(3‐chlorobenzyl)hydrazineyl}‐1‐oxo‐3 phenylpropan‐2‐yl)amino]‐3,3‐dimethyl‐1‐oxobutan‐2‐yl}thiophene‐2‐carboxamide] the inhibition at 50 µM (SARS‐CoV‐2 M^pro [1]; [11]) was 69%, the “M^pro inhibition reversibility” value (SARS‐CoV‐2 M^pro [3]) was “irreversible” and the Ki (SARS‐CoV‐2 M^pro [4]) was 4.34 ± 0.6 µM. For the same compound, the IC50 (SARS‐CoV‐2 M^pro [4]; [12]) was 8.82 ± 1.22 µM.
With `Cn1cnc(Cn2c(=O)[nH]/c(=N\c3cc4cn(C)nc4cc3Cl)n(Cc3cc(F)c(F)cc3F)c2=O)n1` [ensitrelvir, reference compound] the EC50 (SARS‐CoV‐2 [5]; Severe acute respiratory syndrome coronavirus 2, A549-ACE2, 24 h) was 0.028 µM and the CC50 (in vitro) was > 100 µM.
For `CC(C)(C)[C@H](NC(=O)c1cccs1)C(=O)N[C@@H](Cc1ccccc1)C(=O)NN(Cc1cccc(Cl)c1)C(=O)CCl` [Compound 12, N‐{[S]‐1‐[({S}‐1‐{2‐(2‐Chloroacetyl)‐2‐(3‐chlorobenzyl)hydrazineyl}‐1‐oxo‐3‐phenylpropan‐2‐yl)amino]‐3,3‐dimethyl‐1‐oxobutan‐2‐yl}thiophene‐2‐carboxamide], the cytotoxicity (A549‐ACE2 cells) was “no cytotoxicity”, the inhibition at 50 µM (SARS‐CoV‐2 M^pro [1]; [13]) was 100% and the EC50 (SARS‐CoV‐2 [5]; Severe acute respiratory syndrome coronavirus 2, A549‐ACE2 cells, MOI 0.1, 24 h postinfection, plaque assay, read-out: EC50) was 0.47 µM. The “M^pro inhibition reversibility” value (SARS‐CoV‐2 M^pro [3]) was “irreversible”, the half-life at 100 µM [2] was 1.6 ± 0.148 h and the CC50 at 24 h (in vitro) was > 100 µM. The “improvement of k inac/K i value versus 14” value (SARS‐CoV‐2 M^pro [6]; 12 compared with 14) was 50 fold, the “k inac/K i” value (SARS‐CoV‐2 M^pro [6]) was 78,900 M^−1s^−1 and 78,900 ± 12,800 M^−1s^−1 and 100% inhibition @ 50 µM^a Ki = 0.0230 µM^b kinac/Ki = 78,900 M^-1s^-1 c EC50 = 0.47 µM^d M^−1s^−1 and the Ki (SARS‐CoV‐2 M^pro [4]) was 0.023 ± 0.0017 µM. It also gave an IC50 (SARS‐CoV‐2 M^pro [4]; [12]) of 0.0466 ± 0.0034 µM.
In the case of `CN(NC(=O)[C@H](Cc1ccccc1)NC(=O)OCc1ccccc1)S(=O)(=O)F` [Compound 11, Benzyl (S)‐{1‐[2‐(fluorosulfonyl)‐2‐methylhydrazineyl]‐1‐oxo‐3‐phenylpropan‐2‐yl}carbamate], the “stability in aqueous media” value [7] is reported as “not sufficiently stable”, the inhibition at 10 µM (SARS‐CoV‐2 M^pro [1]; [10]) is reported as 40% and the “M^pro inhibition reversibility” value (SARS‐CoV‐2 M^pro [3]) is reported as “irreversible”. The “k inac/K i” value (SARS‐CoV‐2 M^pro [6]) was 54.6 ± 25.0 M⁻¹ s⁻¹ and 54.6 M⁻¹ s⁻¹, the IC50 (SARS‐CoV‐2 M^pro [4]) was 14.7 ± 0.7 µM and the Ki (SARS‐CoV‐2 M^pro [4]) was 7.24 ± 0.34 µM.
For `CN(NC(=O)[C@H](Cc1ccccc1)NC(=O)OCc1ccccc1)C(=O)C(F)Cl` (stereo partly shown) [Compound 8, Benzyl {[2S]‐1‐[2‐(2‐chloro‐2‐fluoroacetyl)‐2‐methylhydrazinyl]‐1‐oxo‐3‐phenylpropan‐2‐yl}carbamate], the inhibition at 10 µM (SARS‐CoV‐2 M^pro [1]; [10]) was 10%, the inhibition at 50 µM (SARS‐CoV‐2 M^pro [1]; [11]) was 16% and the “M^pro inhibition (in words)” value (SARS‐CoV‐2 M^pro [1]) was “failed to strongly inhibit”.
With `COC(=O)/C=C/N(C)NC(=O)[C@H](Cc1ccccc1)NC(=O)OCc1ccccc1` [Compound 1, Methyl (E)‐3‐{2‐[({benzyloxy}carbonyl)‐L‐phenylalanyl]‐1‐methylhydrazineyl}acrylate] the inhibition at 10 µM (SARS‐CoV‐2 M^pro [1]; [10]) was 4%, the inhibition at 50 µM (SARS‐CoV‐2 M^pro [1]; [11]) was 0% and the “M^pro inhibition (in words)” value (SARS‐CoV‐2 M^pro [1]) was “inactive”.
For `CC(C)(C)[C@H](NC(=O)C(F)(F)F)C(=O)N1C[C@H]2[C@@H]([C@H]1C(=O)N[C@H](C#N)C[C@@H]1CCNC1=O)C2(C)C` [nirmatrelvir], the EC50 (SARS‐CoV‐2 [8]) is given as 0.054 µM and the “plasma half‐life” value [9] is given as 2.03 h.
In the case of `CN(NC(=O)[C@H](Cc1ccccc1)NC(=O)OCc1ccccc1)C(=O)CCl` [Compound 6, Benzyl (S)‐{1‐[2‐(2‐chloroacetyl)‐2‐methylhydrazineyl]‐1‐oxo‐3‐phenylpropan‐2‐yl}carbamate], the inhibition at 10 µM (SARS‐CoV‐2 M^pro [1]; [14]) is reported as 19%, the inhibition at 50 µM (SARS‐CoV‐2 M^pro [1]; [13]) is reported as 55% and the “M^pro inhibition reversibility” value (SARS‐CoV‐2 M^pro [3]) is reported as “irreversible”. It also gave a Ki (SARS‐CoV‐2 M^pro [4]) of 14.8 ± 0.8 µM and an IC50 (SARS‐CoV‐2 M^pro [4]; [12]) of 30.1 ± 1.7 µM.
In the case of `CN(NC(=O)[C@H](Cc1ccccc1)NC(=O)OCc1ccccc1)C(=O)C(F)(F)Cl` [Compound 9, Benzyl (S)‐{1‐[2‐(2‐chloro‐2,2‐difluoroacetyl)‐2‐methylhydrazineyl]‐1‐oxo‐3‐phenylpropan‐2‐yl}carbamate], the inhibition at 10 µM (SARS‐CoV‐2 M^pro [1]; [10]) is reported as 9%, the inhibition at 50 µM (SARS‐CoV‐2 M^pro [1]; [11]) is reported as 15% and the “M^pro inhibition (in words)” value (SARS‐CoV‐2 M^pro [1]) is reported as “failed to strongly inhibit”.
In the case of `CCOC(=O)/C=C/C(=O)N(C)NC(=O)[C@H](Cc1ccccc1)NC(=O)OCc1ccccc1` [Compound 5, Ethyl (E)‐4‐{2‐[({benzyloxy}carbonyl)‐L‐phenylalanyl]‐1‐methylhydrazineyl}‐4‐oxobut‐2‐enoate], the inhibition at 10 µM (SARS‐CoV‐2 M^pro [1]; [10]) is reported as 7%, the inhibition at 50 µM (SARS‐CoV‐2 M^pro [1]; [11]) is reported as 13% and the “M^pro inhibition (in words)” value (SARS‐CoV‐2 M^pro [1]) is reported as “did not cause protease inhibition”.
With `COC(=O)/C=C(\C(=O)OC)N(C)NC(=O)[C@H](Cc1ccccc1)NC(=O)OCc1ccccc1` [Compound 2, Dimethyl 2‐{2‐[({benzyloxy}carbonyl)‐L‐phenylalanyl]‐1‐methylhydrazineyl}maleate] the inhibition at 10 µM (SARS‐CoV‐2 M^pro [1]; [10]) was 1%, the inhibition at 50 µM (SARS‐CoV‐2 M^pro [1]; [11]) was 2% and the “M^pro inhibition (in words)” value (SARS‐CoV‐2 M^pro [1]) was “inactive”.
For `CN(NC(=O)[C@H](Cc1ccccc1)NC(=O)OCc1ccccc1)C(=O)C(Cl)Cl` [Compound 7, Benzyl (S)‐{1‐[2‐(2,2‐dichloroacetyl)‐2‐methylhydrazineyl]‐1‐oxo‐3‐phenylpropan‐2‐yl}carbamate], the inhibition at 10 µM (SARS‐CoV‐2 M^pro [1]; [14]) was 85%, the inhibition at 50 µM (SARS‐CoV‐2 M^pro [1]; [13]) was 100% and the “M^pro inhibition reversibility” value (SARS‐CoV‐2 M^pro [3]) was “reversible”. The Ki (SARS‐CoV‐2 M^pro [4]) was 1.22 ± 0.09 µM and the IC50 (SARS‐CoV‐2 M^pro [4]; [12]) was 2.47 ± 0.18 µM.
